Data on 17 compounds can be found in ChEMBL document CHEMBL5236635, “Structure-Based Drug Design and Synthesis of Novel N-Aryl-2,4-bithiazole-2-amine CYP1B1-Selective Inhibitors in Overcoming Taxol Resistance in A549 Cells” (J Med Chem, 2022).

pIC50, pKi: −log10 of the molar value. Active and inactive are the calls of the source. The calls are words filed in the database; no cut-off is given here.

The target of one data set is T1, CYP1B1 (Homo sapiens, UniProt Q16678).
T1 sequence (Q16678 whole entry): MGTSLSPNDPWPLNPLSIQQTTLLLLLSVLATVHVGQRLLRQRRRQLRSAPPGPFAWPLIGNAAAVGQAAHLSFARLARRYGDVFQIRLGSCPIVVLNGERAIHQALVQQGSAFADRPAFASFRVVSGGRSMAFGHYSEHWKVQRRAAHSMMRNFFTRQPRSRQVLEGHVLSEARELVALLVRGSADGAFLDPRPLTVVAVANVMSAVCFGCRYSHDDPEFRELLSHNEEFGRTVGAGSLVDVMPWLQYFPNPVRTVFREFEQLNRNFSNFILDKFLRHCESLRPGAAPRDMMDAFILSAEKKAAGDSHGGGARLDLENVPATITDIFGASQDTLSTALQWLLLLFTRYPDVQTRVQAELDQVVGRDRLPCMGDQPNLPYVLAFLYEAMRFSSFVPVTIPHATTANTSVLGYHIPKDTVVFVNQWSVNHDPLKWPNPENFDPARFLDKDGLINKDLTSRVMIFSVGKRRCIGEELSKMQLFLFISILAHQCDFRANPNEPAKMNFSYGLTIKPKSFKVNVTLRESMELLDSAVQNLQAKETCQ
In words: Inhibition of recombinant human CYP1B1 assessed as inhibition ratio at 100 nM using 7-ethyl-0-resorufin as substrate incubated for 30 mins in presence of NADPH by EROD assay relative to control. To be noted: recombinant human CYP1B1, probe 7-ethyl-0-resorufin.

For data set [1], the target named is T2, Cytochrome P450 1B1 (Homo sapiens, UniProt Q16678).
T2 sequence (Q16678 whole entry): T1 sequence (Q16678 whole entry)
In words: Inhibition of recombinant human CYP1B1 using 7-ethyl-0-resorufin as substrate incubated for 30 mins in presence of NADPH by EROD assay.

Data set [2] concerns the target T3, Cytochrome P450 1A1 (Homo sapiens, UniProt P04798).
T3 sequence (P04798 whole entry): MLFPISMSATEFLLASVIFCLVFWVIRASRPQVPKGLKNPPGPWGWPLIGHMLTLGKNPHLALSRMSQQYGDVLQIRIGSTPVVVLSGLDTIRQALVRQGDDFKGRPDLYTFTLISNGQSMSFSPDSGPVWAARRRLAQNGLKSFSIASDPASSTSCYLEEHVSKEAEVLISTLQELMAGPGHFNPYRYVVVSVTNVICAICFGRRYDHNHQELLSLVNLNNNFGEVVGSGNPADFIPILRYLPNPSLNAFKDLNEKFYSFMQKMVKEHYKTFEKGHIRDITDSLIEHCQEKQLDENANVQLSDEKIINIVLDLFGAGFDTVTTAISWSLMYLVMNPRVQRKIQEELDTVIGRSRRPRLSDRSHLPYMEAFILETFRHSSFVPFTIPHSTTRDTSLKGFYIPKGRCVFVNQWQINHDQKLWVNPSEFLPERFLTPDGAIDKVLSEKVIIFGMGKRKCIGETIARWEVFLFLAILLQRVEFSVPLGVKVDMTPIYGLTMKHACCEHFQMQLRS
In words: Inhibition of recombinant human CYP1A1 using 7-ethyl-0-resorufin as substrate incubated for 30 mins in presence of NADPH by EROD assay.

Data set [3] concerns the target T4, Cytochrome P450 1A2 (Homo sapiens, UniProt P05177).
T4 sequence (P05177 whole entry): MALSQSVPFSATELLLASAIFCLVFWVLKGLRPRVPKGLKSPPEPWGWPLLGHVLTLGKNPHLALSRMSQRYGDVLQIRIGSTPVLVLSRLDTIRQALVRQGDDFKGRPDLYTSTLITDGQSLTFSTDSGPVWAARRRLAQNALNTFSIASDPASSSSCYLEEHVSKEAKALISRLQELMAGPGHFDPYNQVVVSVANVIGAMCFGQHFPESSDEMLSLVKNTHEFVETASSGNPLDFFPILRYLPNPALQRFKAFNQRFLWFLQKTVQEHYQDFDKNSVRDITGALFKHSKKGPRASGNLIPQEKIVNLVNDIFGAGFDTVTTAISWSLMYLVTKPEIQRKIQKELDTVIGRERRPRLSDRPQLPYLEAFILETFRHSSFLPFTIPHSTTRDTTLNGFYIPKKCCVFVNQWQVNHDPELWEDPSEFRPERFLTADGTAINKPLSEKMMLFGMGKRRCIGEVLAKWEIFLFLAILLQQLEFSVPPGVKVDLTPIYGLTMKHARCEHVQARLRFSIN
Briefly: Inhibition of recombinant human CYP1A2 using 7-ethyl-0-resorufin as substrate incubated for 30 mins in presence of NADPH by EROD assay.

Another data set deals with CYP1A1 versus CYP1B1. In words: Selectivity index, ratio of IC50 for inhibition of recombinant human CYP1A1 to IC50 for inhibition of recombinant human CYP1B1. To be noted: recombinant human CYP1A1 and recombinant human CYP1B1.
In a further data set the test system is CYP1A2 versus CYP1B1. In words: Selectivity index, ratio of IC50 for inhibition of recombinant human CYP1A2 to IC50 for inhibition of recombinant human CYP1B1. The following applies: recombinant human CYP1A2 and recombinant human CYP1B1.
Data set [4] deals with A549. Briefly: Inhibition of DMBA induced taxol resistance in human A549 cells. The class given is functional, cell-based. To be noted: dose 2.5-10 µM.
Data set [5] concerns the target T2, Cytochrome P450 1B1. In words: Inhibition of human CYP1B1. The class given is ADME.
Data set [6] has as its system A549. In words: Antiproliferative activity against human A549 cells assessed as reduction in cell viability at 20 nM by MTT assay. The data set is classed as functional, cell-based.
The test system of data set [7] is A549. Briefly: Antiproliferative activity against human A549 cells assessed as reduction in cell viability at 10 nM by MTT assay. The data set is classed as functional, cell-based.
For data set [8], the system named is A549. In words: Antiproliferative activity against human A549 cells assessed as reduction in cell viability at 20 nM in presence of DMBA by MTT assay. The class given is functional, cell-based. In general terms: Formazan colour is commonly taken as a measure of viable cells.
Data set [9] deals with T3, Cytochrome P450 1A1. Briefly: Inhibition of CYP1A1 (unknown origin) assessed as inhibition constant. The class given is ADME.
A further data set has as its system A549/TR. Briefly: Reversal of taxol resistance in human A549/Taxol cells assessed as increase in Rho123 accumulation at 5 uM incubated for 20 mins by multimode plate reader analysis. The data set is classed as functional, cell-based.
In data set [10] the target is T3, Cytochrome P450 1A1. Briefly: Inhibition of CYP1A1 (unknown origin). The class given is ADME.
Data set [11] concerns the target T2, Cytochrome P450 1B1. Briefly: Inhibition of CYP1B1 (unknown origin). The class given is ADME.
Data set [12] has as its target T4, Cytochrome P450 1A2. Briefly: Inhibition of CYP1A2 (unknown origin). The data set is classed as ADME.

In general, inhibition refers to the change of the read-out against control, counted positive when it falls. As a reminder, the pIC50 is −log10 of the IC50, conventionally taken in molar units. Consider `c1cn(Cc2ccc(Nc3nc(-c4nccs4)cs3)cc2)cn1`, for which the inhibition at 0.5 h, 0.1 µM at CYP1B1 was found to be 99.7%. Further, the negative logarithm of the IC50 (pIC50) was 8.30 on Cytochrome P450 1B1 [1], 7.15 at Cytochrome P450 1A1 [2] and 7.31 on Cytochrome P450 1A2 [3]. The selectivity ratio was found to be 14.1 in the data set with CYP1A1 versus CYP1B1 and 9.7 in the data set with CYP1A2 versus CYP1B1.
As to `Clc1cc(Nc2nc(-c3nccs3)cs2)cc(Cl)c1Cl`, the inhibition at 0.5 h, 0.1 µM at CYP1B1 was 100%. Moreover, the figures for the negative-log IC50 (pIC50) on Cytochrome P450 1B1 [1], on Cytochrome P450 1A1 [2] and on Cytochrome P450 1A2 [3] were 8.13, 6.32 and 6.32, respectively. The selectivity ratio was 64.7 with CYP1A1 versus CYP1B1 and 64.8 in the data set with CYP1A2 versus CYP1B1.
Turning to `COc1cc(Nc2nc(-c3nccs3)cs2)cc(OC)c1`, the inhibition at 0.5 h, 0.1 µM on CYP1B1 is 90.7%. In addition, the pIC50 on Cytochrome P450 1B1 [1] was 9.92; at Cytochrome P450 1A1 [2], 7.36; at Cytochrome P450 1A2 [3], 7.05. Further, the selectivity ratio with CYP1A1 versus CYP1B1 worked out at 363; with CYP1A2 versus CYP1B1, 733.
`Fc1ccccc1-c1csc(-c2csc(Nc3cc(Cl)cc(Cl)c3)n2)n1`: the inhibition entry in the data set with A549 [4] was “Dose-Dependent Effect”.
With `Cc1cc(O)c2c(c1)C(=O)c1cc(O)cc(O)c1C2=O` [EMODIN], the negative logarithm of the IC50 (pIC50) on Cytochrome P450 1B1 [5] is 5.43.
Turning to `CC(=O)O[C@H]1C(=O)[C@@]2(C)[C@H]([C@H](OC(=O)c3ccccc3)[C@]3(O)C[C@H](OC(=O)[C@H](O)[C@@H](NC(=O)c4ccccc4)c4ccccc4)C(C)=C1C3(C)C)[C@]1(OC(C)=O)CO[C@@H]1C[C@@H]2O`, the result in the data set with A549 [6] and in the data set with A549 [7] was Active. In addition, in the data set on A549 [8], the outcome was inactive.
As for `Clc1ccccc1-c1csc(-c2csc(Nc3ccc(N4CCOCC4)cc3)n2)n1`, the negative-log IC50 (pIC50) was 8.06 at Cytochrome P450 1B1 [1], 7.33 on Cytochrome P450 1A1 [2] and under 5.00 on Cytochrome P450 1A2 [3]. Besides, in the data set with CYP1A1 versus CYP1B1, the selectivity ratio turned out to be 5.37. Also, the inhibition result with A549 [4] was “Dose-Dependent Effect”.
As a reminder, the pKi is the negative decadic logarithm of the Ki, by convention in mol/L. Take `CCC/C(C=C(C)C)=C\COc1c2occc2c(C)c2ccc(=O)oc12`: the pKi on Cytochrome P450 1A1 [9] was 5.14.
With `c1csc(-c2csc(Nc3ccc(N4CCOCC4)cc3)n2)n1`, the inhibition at 0.5 h, 0.1 µM at CYP1B1 turned out to be 87.7%. Moreover, the pIC50 was 8.10 at Cytochrome P450 1B1 [1], 6.00 on Cytochrome P450 1A1 [2] and 5.73 on Cytochrome P450 1A2 [3]. For the same compound, the selectivity ratio turned out to be 126 in the data set on CYP1A1 versus CYP1B1 and 236 in the data set on CYP1A2 versus CYP1B1.
Consider `COc1ccc(CCN(C)CCCC(C#N)(c2ccc(OC)c(OC)c2)C(C)C)cc1OC` (stereo not drawn), for which the result with A549/TR was Active.
As for `c1csc(-c2csc(Nc3ccc(Cn4cncn4)cc3)n2)n1`, the inhibition at 0.5 h, 0.1 µM at CYP1B1 turned out to be 92%. Moreover, the results for the pIC50 at Cytochrome P450 1B1 [1], at Cytochrome P450 1A1 [2] and on Cytochrome P450 1A2 [3] were 8.04, 6.78 and 6.85, respectively. In addition, the values for the selectivity ratio in the data set on CYP1A1 versus CYP1B1 and in the data set on CYP1A2 versus CYP1B1 were 18.2 and 15.4, respectively.
`Clc1cc(Cl)cc(Nc2nc(-c3nccs3)cs2)c1`: the inhibition at 0.5 h, 0.1 µM on CYP1B1 came to 97.2%. Further, the results for the negative logarithm of the IC50 (pIC50) on Cytochrome P450 1B1 [1], at Cytochrome P450 1A1 [2] and on Cytochrome P450 1A2 [3] were 8.75, 6.75 and 7.25, respectively. Moreover, the figures for the selectivity ratio with CYP1A1 versus CYP1B1 and with CYP1A2 versus CYP1B1 were 101 and 31.5, respectively.
For the compound `Clc1ccc(Nc2nc(-c3nccs3)cs2)cc1`, the inhibition at 0.5 h, 0.1 µM at CYP1B1 came out at 90%. Moreover, the pIC50 at Cytochrome P450 1B1 [1] is 8.20; on Cytochrome P450 1A1 [2], 6.23; on Cytochrome P450 1A2 [3] it was 6.93. For the same compound, the figures for the selectivity ratio in the data set with CYP1A1 versus CYP1B1 and in the data set on CYP1A2 versus CYP1B1 were 92.9 and 18.8, respectively.
Take `COc1ccc(-c2csc(-c3csc(Nc4cccc(F)c4)n3)n2)cc1OC`: the negative logarithm of the IC50 (pIC50) on Cytochrome P450 1B1 [1] is 6.25; on Cytochrome P450 1A1 [2], 6.68; on Cytochrome P450 1A2 [3], 7.50. In addition, the figures for the selectivity ratio with CYP1A1 versus CYP1B1 and in the data set on CYP1A2 versus CYP1B1 were 0.37 and 0.06, respectively.
As for `c1csc(-c2csc(Nc3ccc4c(c3)OCO4)n2)n1`, at CYP1B1, the inhibition at 0.5 h, 0.1 µM was found to be 97.6%. Moreover, the negative-log IC50 (pIC50) on Cytochrome P450 1B1 [1] was 8.05; at Cytochrome P450 1A1 [2] it was 7.03; on Cytochrome P450 1A2 [3], 7.11. The selectivity ratio in the data set on CYP1A1 versus CYP1B1 turned out to be 10.3; in the data set with CYP1A2 versus CYP1B1, 8.71.
Consider `Fc1ccc(-c2csc(-c3csc(Nc4ccc(N5CCOCC5)cc4)n3)n2)cc1`, for which the pIC50 at Cytochrome P450 1B1 [1] is 5.79; on Cytochrome P450 1A1 [2] it was 6.77; at Cytochrome P450 1A2 [3], 5.81. For the same compound, the selectivity ratio in the data set with CYP1A1 versus CYP1B1 turned out to be 0.1; with CYP1A2 versus CYP1B1, 0.97.
Take `Nc1ccc2[nH]c3c(c2c1)CCn1c-3nc2ccccc2c1=O`: the pIC50 at Cytochrome P450 1A1 [10] is 5.59; against Cytochrome P450 1B1 [11] it was 7.05; at Cytochrome P450 1A2 [12], 5.59.
